Test results: US20100130549A1, “PSYCHOTROPIC COMPOUNDS, COMPOSITIONS AND METHODS OF USE” (priority 2007, published 2010)
pIC50, pKi: −log10 of the molar value. Values joined by “and” are separate entries in the source; they are usually repeats but may differ in a detail not shown here. Identical values can stand only once.

How the values were obtained:
BALB/c mice [1] = assay: Open field test
Histamine H2 = Histamine H2 (Homo sapiens, UniProt P25021); assay: Radioligand binding assay, Histamine H2
Sequence of Histamine H2 (P25021 whole entry): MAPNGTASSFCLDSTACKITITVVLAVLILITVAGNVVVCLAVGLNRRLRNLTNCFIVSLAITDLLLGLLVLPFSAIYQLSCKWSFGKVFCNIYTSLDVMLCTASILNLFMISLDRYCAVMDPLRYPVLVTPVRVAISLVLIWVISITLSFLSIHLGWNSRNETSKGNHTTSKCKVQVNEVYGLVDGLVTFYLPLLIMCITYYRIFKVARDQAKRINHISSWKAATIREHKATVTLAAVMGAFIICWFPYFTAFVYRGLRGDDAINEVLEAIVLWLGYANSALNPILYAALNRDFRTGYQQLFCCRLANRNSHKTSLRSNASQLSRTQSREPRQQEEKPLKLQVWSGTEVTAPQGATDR
Source text: (§1) . Table 1 provides data produced via a receptor binding assay and IC50 and Ki determination. […] In addition, the compound of formula (Ia) has a potent DAT inhibition, which is indicative of dopaminergic uptake inhibition and increased DA activity. In addition to the effect on SERT and DAT, the compound of formula (Ia) inhibited the transporter of Norepinephrine (NET), and several neurotransmitter's receptors like alpha2A and alpha2C receptors, alpha 1A and alphal C, 5HT2A and 5HT2C, signal histamine2 and dopamine D1. This specific profile is in line with the data on antidepressant, anxiolytic and moderate neuro-stimulation activity observed in the animal model studies.
(§2) With regard to the data provided in Table 1, the biochemical assay results are presented as the percent inhibition of specific binding or activity throughout the report. For primary assays, only the lowest concentration with a significant response judged by the assays’ criteria, is shown in this summary. […] Unless otherwise requested, primary screening in duplicate with quantitative data (e.g., IC50±SEM, Ki±SEM and nH) are shown.

SHSY5Y cell-line = assay: Cell viability, neutral red method
BALBc male mice = assay: Hot plate test; type: in vivo; settings: 10 mg/kg orally (sertraline equimolar)
Source text: The hot-plate test is widely used to measure pain sensation. The latency in response to heat of mice and rats feet is based on the method described by Eddy et al., Synthetic analgesics. II. […] The method is based on placing an animal on heated (52-56 C) surface and measuring the time to response (raising paw, licking of the paw, jumping or running.
The animals were followed for 6 hr.

Adrenergic α2c = target: T1, Adrenergic α2c (Homo sapiens, UniProt P18825); assay: Radioligand binding assay, Adrenergic α2c
T1 construct: 203800
T1 sequence (P18825 1-462): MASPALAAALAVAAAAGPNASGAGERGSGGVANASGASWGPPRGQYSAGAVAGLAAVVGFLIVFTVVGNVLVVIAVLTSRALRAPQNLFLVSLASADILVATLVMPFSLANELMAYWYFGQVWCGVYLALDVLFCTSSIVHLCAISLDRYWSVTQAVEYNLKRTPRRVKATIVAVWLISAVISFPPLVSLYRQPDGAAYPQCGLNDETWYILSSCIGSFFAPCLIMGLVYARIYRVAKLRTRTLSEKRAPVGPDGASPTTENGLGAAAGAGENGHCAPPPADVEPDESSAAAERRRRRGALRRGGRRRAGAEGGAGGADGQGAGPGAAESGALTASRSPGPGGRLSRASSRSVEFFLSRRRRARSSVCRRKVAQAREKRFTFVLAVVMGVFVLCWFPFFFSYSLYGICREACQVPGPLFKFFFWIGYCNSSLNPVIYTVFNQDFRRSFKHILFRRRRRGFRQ
Source text: as §1, §2

[2] = target: Serotonin (5-Hydroxytryptamine) 5-HT6 (Homo sapiens, UniProt P50406); assay: Radioligand binding assay, 5-HT6
Sequence of Serotonin (5-Hydroxytryptamine) 5-HT6 (P50406 whole entry): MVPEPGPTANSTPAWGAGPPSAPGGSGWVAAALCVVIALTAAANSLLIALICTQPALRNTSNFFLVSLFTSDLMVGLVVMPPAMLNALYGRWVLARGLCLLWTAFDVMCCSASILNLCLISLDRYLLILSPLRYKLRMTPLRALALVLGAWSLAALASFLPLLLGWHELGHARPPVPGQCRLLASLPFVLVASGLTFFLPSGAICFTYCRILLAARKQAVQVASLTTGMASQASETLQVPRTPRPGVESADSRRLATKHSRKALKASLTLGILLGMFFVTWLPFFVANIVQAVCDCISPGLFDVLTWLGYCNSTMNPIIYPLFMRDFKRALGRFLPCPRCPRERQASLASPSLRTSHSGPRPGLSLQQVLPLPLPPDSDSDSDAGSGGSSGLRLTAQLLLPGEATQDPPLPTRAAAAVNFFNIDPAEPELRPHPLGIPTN
Source text: as §1, §2

Adrenergic α1A = target: T2, Adrenergic α1A (Rattus norvegicus, UniProt P43140); assay: Radioligand binding assay, Adrenergic α1A
T2 sequence (P43140 1-466): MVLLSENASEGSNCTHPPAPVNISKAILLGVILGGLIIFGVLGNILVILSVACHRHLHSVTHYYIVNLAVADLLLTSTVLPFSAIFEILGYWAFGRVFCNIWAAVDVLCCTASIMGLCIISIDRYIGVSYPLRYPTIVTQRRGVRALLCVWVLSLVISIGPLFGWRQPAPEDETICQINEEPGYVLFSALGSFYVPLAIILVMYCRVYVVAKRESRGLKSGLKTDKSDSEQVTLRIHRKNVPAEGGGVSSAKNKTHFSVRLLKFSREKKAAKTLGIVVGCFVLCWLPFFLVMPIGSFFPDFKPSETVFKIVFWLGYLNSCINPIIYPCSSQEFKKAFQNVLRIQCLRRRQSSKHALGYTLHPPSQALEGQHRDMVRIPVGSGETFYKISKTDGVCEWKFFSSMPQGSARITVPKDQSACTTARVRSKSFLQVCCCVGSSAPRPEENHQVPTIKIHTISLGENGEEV
Source text: as §1, §2

ICR male mice = assay: Subchronic ip administration (toxicity); type: in vivo; settings: mouse, in vivo, ip, 30 mg/kg
Source text: […]. Except for this local irritation no other toxicity was noted.
[…]. […] Except of these local irritations no other toxicity was noted.

Adrenergic α2A = target: T3, Adrenergic α2A (Homo sapiens, UniProt P08913); assay: Radioligand binding assay, Adrenergic α2A
T3 construct: 203620
T3 sequence (P08913 1-465): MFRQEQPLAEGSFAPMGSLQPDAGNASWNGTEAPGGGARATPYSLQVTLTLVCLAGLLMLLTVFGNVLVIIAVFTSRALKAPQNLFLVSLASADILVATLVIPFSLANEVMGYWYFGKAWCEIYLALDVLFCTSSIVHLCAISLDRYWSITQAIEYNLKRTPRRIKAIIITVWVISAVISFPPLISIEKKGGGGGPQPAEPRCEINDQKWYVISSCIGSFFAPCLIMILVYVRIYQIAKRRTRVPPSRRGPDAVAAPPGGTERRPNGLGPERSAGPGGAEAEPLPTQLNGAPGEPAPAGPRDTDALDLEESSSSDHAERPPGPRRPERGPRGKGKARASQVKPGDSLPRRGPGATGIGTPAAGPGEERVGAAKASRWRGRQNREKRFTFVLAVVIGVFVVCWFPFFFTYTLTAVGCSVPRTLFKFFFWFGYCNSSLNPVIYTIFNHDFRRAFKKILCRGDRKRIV
Source text: as §1, §2

BALB/c mice [3] = assay: Elevated plus maze; settings: 10 mg/kg (equimolar) ip 1 hr prior
[4] = 10 mg/kg (equimolar) ip 1 hr prior
[5] = 10 mg/kg (equimolar) ip 1 hr prior, p<0.001 vs controls

Question: Which results are given for `CN[C@H]1CC[C@@H](c2ccc(Cl)c(Cl)c2)c2ccc(C#CCCCO)cc21` [compound Ia, (1S-cis)-4-(3,4-dichlorophenyl)-7-(5-hydroxy-1-pentyn-1-yl)-1,2,3,4-tetrahydro-N-methyl-1-naphthalenamine hydroiodide]?
Answer: ratio (center/periphery) (BALB/c mice [1]; [4]): significantly increase; total time spent in the center (areas 2+3) (BALB/c mice [1]; [4]): significantly increase; frequency to the center (BALB/c mice [1]; 10 mg/kg (equimolar) ip 1 hr prior, controls 1.23): 1.35; distance moved (BALB/c mice [1]; [5]): significantly increase; velocity (BALB/c mice [1]; [5]): significantly increase; sedative effect accompanying the anxiolytic activity (BALB/c mice [1]; orally 90 min prior): not accompanied by a sedative effect; pIC50 (Histamine H2): 5.81; nH (Histamine H2): 1.37; inhibition at 3 µM (Histamine H2; 3 μM): 70%; pKi (Histamine H2; read-out: K1): 5.89; increase in cell viability compared to control vehicle treated cells (SHSY5Y cell-line; 1-5 μM, 24 and 48 hours incubation): 13-25%; effect on cell viability over concentration range (SHSY5Y cell-line; 1-50 μM, low concentrations neurotrophic, high concentrations apoptosis): biphasic effects; concentration of maximal neurotropic activity (SHSY5Y cell-line; concentration range 1-50 μM): 1 µM; time after drug administration with significant effect on reaction to heating (BALBc male mice; followed for 6 hr, hydroiodide): 120 min and 240 min; latency to heat sensation (BALBc male mice; vs vehicle treated control): significantly increase; pIC50 (Adrenergic α2c): 5.72; nH (Adrenergic α2c): 1.03; inhibition at 3 µM (Adrenergic α2c; 3 μM): 62%; pKi (Adrenergic α2c; read-out: K1): 6.56; pIC50 [2]: 5.59; nH [2]: 1.16; inhibition at 3 µM ([2]; 3 μM): 51%; pKi ([2]; read-out: K1): 5.92; pIC50 (Adrenergic α1A): 5.38; nH (Adrenergic α1A): 1.34; inhibition at 10 µM (Adrenergic α1A; 10 μM): 73%; pKi (Adrenergic α1A; read-out: K1): 5.77; histopathology of heart, spleen, liver and kidney (ICR male mice): minimal to mild irritation; pIC50 (Adrenergic α2A): 6.56; nH (Adrenergic α2A): 0.930; inhibition at 1 µM (Adrenergic α2A; 1 μM): 82%; pKi (Adrenergic α2A; read-out: K1): 6.99; anti-anxiety effect (BALB/c mice [3]): significant anti-anxiety effect
